# Patent publication EP1202975B1, “SUBSTITUTED POLYCYCLIC ARYL AND HETEROARYL PYRAZINONES USEFUL FOR SELECTIVE INHIBITION OF THE COAGULATION CASCADE” (Pharmacia Corporation, priority 1999, dated 2000)
# Like-named read-outs stand apart in the source and are kept apart here.
# Tests used:
# [1] = target: T1, TF-VIIa (Homo sapiens, UniProt P08709); assay: TF-VIIa Assay; format: biochemical
# T1 construct: 2nM recombinant human factor VIIa; purchased American Diagnostica, Greenwich CT; host or cells: soluble TF made in house in E. coli
# [2] = target: Human factor Xa (Homo sapiens, UniProt P00742)
# [3] = read-out: IC50 or % Inhibition TF-VIIa (30 µM); cells given as a plain number (IC50)
# [4] = read-out: IC50 or % Inhibition TF-VIIa (30 µM); cells without % sign: IC50
# Human factor Xa, sequence (P00742 235-488 limits assumed): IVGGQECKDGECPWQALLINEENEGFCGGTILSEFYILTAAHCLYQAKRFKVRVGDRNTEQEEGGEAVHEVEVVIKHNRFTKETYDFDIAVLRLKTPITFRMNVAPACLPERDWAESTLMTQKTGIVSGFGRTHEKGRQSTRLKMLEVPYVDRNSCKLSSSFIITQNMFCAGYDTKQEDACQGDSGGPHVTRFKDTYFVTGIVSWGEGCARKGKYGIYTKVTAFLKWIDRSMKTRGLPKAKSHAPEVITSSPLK
# Human factor Xa, sequence (P00742 41-179 limits assumed): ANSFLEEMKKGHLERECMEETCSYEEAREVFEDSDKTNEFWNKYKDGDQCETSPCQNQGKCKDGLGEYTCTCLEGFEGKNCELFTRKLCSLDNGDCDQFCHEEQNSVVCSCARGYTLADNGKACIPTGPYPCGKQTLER
# T1 sequence (P08709 213-466 limits assumed): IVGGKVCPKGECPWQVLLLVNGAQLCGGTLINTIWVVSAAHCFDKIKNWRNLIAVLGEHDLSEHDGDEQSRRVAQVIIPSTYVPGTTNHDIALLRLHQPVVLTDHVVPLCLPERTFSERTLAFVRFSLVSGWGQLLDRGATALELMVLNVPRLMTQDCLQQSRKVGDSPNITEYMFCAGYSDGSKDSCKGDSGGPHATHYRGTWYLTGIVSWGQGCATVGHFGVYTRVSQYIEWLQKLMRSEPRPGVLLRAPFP
# T1 sequence (P08709 61-212 limits assumed): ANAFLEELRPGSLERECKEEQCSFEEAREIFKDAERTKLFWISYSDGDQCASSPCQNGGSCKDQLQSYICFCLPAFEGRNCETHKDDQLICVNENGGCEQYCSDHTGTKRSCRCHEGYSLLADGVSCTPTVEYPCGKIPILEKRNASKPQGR
# T1 sequence (P13726 33-251 partner limits assumed): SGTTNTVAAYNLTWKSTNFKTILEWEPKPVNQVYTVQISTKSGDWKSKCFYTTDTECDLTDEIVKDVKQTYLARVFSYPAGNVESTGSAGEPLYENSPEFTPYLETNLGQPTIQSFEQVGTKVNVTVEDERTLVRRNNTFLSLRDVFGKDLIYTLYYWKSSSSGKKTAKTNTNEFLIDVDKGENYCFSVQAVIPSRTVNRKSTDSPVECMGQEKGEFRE
"IC50 [1, 3] [µM]",IC50 or % Inhibition Factor Xa (30 µM) [2] [%],SMILES,further results
16.7,10,COc1ccc(CCNc2nc(Cl)c(-c3ccccc3)n(CC(=O)NCc3ccc(C(=N)N)cc3)c2=O)cc1OC [1512-05],
,,O=C(Cn1c(CCc2ccccc2)c(Cl)nc(NCc2ccncc2)c1=O)NCCc1ccncc1 [Example E-0072],% Inhibition TF-VIIa (100 µM) [1]: 0%; % Inhibition Factor Xa (100 µM) [2]: 0%
,17,N=C(N)c1ccc(CNC(=O)Cn2c(-c3cccc(Cl)c3)c(Cl)nc(NCCc3ccccc3)c2=O)cc1 [1471-31],IC50 ([1]; cells given as a plain number (IC50); read-out: IC50 or % Inhibition TF-VIIa (30 µM)): 1.98 µM
11.7,10,CN1CCCC1CCNc1nc(Cl)c(-c2ccccc2)n(CC(=O)NCc2ccc(C(=N)N)cc2)c1=O (centres unmarked) [1512-46],
,,O=C(Cn1c(CCc2ccccc2)c(Cl)nc(NCCc2ccncc2)c1=O)NCCc1ccncc1 [Example E-0070],% Inhibition TF-VIIa (100 µM) [1]: 0%; % Inhibition Factor Xa (100 µM) [2]: 0%
,,O=C(Cn1c(CCc2ccccc2)c(Cl)nc(NCCc2ccc(Cl)cc2)c1=O)NCCc1ccncc1 [Example E-0068],% Inhibition TF-VIIa (100 µM) [1]: 0%; % Inhibition Factor Xa (100 µM) [2]: 0%
,,O=C(Cn1c(CCc2ccccc2)c(Cl)nc(NCc2ccccc2)c1=O)NCCc1ccncc1 [Example E-0065],% Inhibition TF-VIIa (100 µM) [1]: 0%; % Inhibition Factor Xa (100 µM) [2]: 0%
,8,CCNc1nc(Cl)c(-c2cccc(N)c2)n(CC(=O)NCc2ccc(C(=N)N)cc2F)c1=O [1543-31],"IC50 [1, 4]: 0.04 µM"
,17,N=C(N)c1ccc(CNC(=O)Cn2c(-c3ccccc3)c(Cl)nc(NCC(F)(F)F)c2=O)cc1 [1507-41],IC50 or % Inhibition TF-VIIa (30 µM) [1]: 48%
1.7,0,Nc1n[nH]c2cc(CNC(=O)Cn3c(-c4ccccc4)cnc(NCCc4ccccc4)c3=O)ccc12 [Example 39],
5.7,0,CSCC(C(=O)NCc1ccc(C(=N)N)cc1)n1c(-c2ccccc2)c(Cl)nc(NCc2ccccc2)c1=O (centres unmarked) [1517-04],
,,COc1ccc(-c2c(Cl)nc(NCCN3CCOCC3)c(=O)n2CC(=O)NCCc2ccncc2)cc1 [Example E-0039],% Inhibition TF-VIIa (100 µM) [1]: 0%; % Inhibition Factor Xa (100 µM) [2]: 1%
8.17,10,Cc1c(Cl)nc(NCc2ccccc2)c(=O)n1CC(=O)NCc1ccc(C(=N)N)cc1 [1471-1],
1.8,0,N=C(N)NC/C=C\CNC(=O)Cn1c(-c2ccccc2)cnc(NCCc2ccccc2)c1=O [Example 37],
,,Cc1c(Cl)nc(NCCc2ccncc2)c(=O)n1CC(=O)NCCc1ccncc1 [Example E-0006],% Inhibition TF-VIIa (100 µM) [1]: 2%; % Inhibition Factor Xa (100 µM) [2]: 0%
,12,N=C(N)c1ccc(CNC(=O)Cn2c(-c3ccc(-c4ccccc4)cc3)c(Cl)nc(NCCc3cccc(Cl)c3)c2=O)cc1 [1471-70],IC50 or % Inhibition TF-VIIa (30 µM) [1]: 10%
22.5,4,N=C(N)c1ccc(CNC(=O)Cn2c(-c3ccccc3)c(Cl)nc(NCc3cc(Cl)ccc3Cl)c2=O)cc1 [1512-35],
30,5,CCOc1ccccc1CNc1nc(Cl)c(-c2ccccc2)n(CC(=O)NCc2ccc(C(=N)N)cc2)c1=O [1512-11],
,15,N=C(N)c1ccc(CNC(=O)Cn2c(-c3ccccc3)c(Cl)nc(NCc3ccccn3)c2=O)cc1 [1507-24],IC50 or % Inhibition TF-VIIa (30 µM) [1]: 0%
2,0,CSCC(C(=O)NCc1ccc(C(=N)N)cc1)n1c(-c2ccccc2)c(Cl)nc(NC2CCC2)c1=O (centres unmarked) [1517-10],
,27,N=C(N)c1ccc(CNC(=O)Cn2c(-c3cccc(N)c3)c(Cl)nc(NCCCCN3CCCC3)c2=O)cc1 [1543-21],"IC50 [1, 4]: 0.29 µM"
11.3,5,CCCCC(CC)Nc1nc(Cl)c(-c2ccccc2)n(CC(=O)NCc2ccc(C(=N)N)cc2)c1=O (centres unmarked) [1512-12],
